Measured values: patent US11236129B2, “IL-17A binding peptides and medical uses thereof” (Dompe' Farmaceutici S.P.A., priority 2018, dated 2022)
Read-outs that look alike come from different tables or passages of the source. Residues, ends and D or L forms follow the SMILES beside them.

Legend:
[1] = Isoelectric point, log D and log P (SiriusT3); format: physicochemical; conditions: for IP (isoelectric point): 25±1° C., 0.15 M KCl
Method: The main physicochemical properties (Isoelectric point (IP), log D (7.4) and log P) of the peptides of Table 8 below were determined by using the SiriusT3 apparatus (Sirius Analytical Instruments Ltd., East Sussex, UK) equipped with an Ag/AgCl double junction reference pH electrode, a Sirius D-PAS spectrometer and a turbidity sensing device. […] An overhead stirrer was used and a temperature probe (Peltier controller) monitored the temperature during the course of the titration. The titration experiments were conducted in 0.15 M KCl Ionic Strength Adjusted solution (ISA water) under a nitrogen atmosphere at a temperature of 25±1° C. All tests were performed using standardized 0.5 M KOH and 0.5 M HCl as titration reagents, for the partition coefficient tests a saturated Octanol in ISA water (5% of ISA water) was used as partition solvent. The pKas were determined by potentiometric method by pH-metric titration. The powder (around 0.5 mg) was dissolved in 1.5 ml of ISA water and the titration was performed in triplicate in the pH range 2.0−12.0.

[2] = molecular target: IL-17RA/IL17RC dimerization induced by IL-17A (Homo sapiens, UniProt Q16552); assay: IL-17RA/IL17RC dimerization assay in response to IL-17A (PathHunter Cytokine Receptor Assay); format: cell-based; conditions: IL-17A at EC80; read-out: IC50 in IL-17RA/IL7RC dimerization assay
Outline: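 PathHunter cells with IL-17RA and IL-17RC tagged for β-galactosidase complementation were preincubated 60 min with peptide (1% vehicle). IL-17A was then added at EC80 for 6–16 h at 37 °C, and chemiluminescence was read. Inhibition is relative to the EC80 and vehicle controls.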

[3] = format: physicochemical; conditions: pH 7.8
Method: Each lyophilized peptide was weighed in an amber vial. A calculated volume of phosphate buffered solution at pH 7.8 was added in order to directly obtain 10 mM Stock Solutions. The recovered suspensions were stirred for 30 minutes by orbital shaker incubator at 37° C. Subsequent dilutions were performed to obtain the more diluted stock solutions for the less soluble compounds.
In order to evaluate the stability and the solubility, all the stock solutions were stored at 25° C. The title was evaluated by UHPLC-MS analysis in comparison with the standard solutions, at 3 time points: T0, 3 days, 1 week.
The chromatographic profile was evaluated for the quantitative assay while the MS spectra were detected as support in the stability studies.
Each peptide was weighed and directly diluted at 100 μM with the phosphate buffer at pH 7.8. The solutions were stirred for 5 minutes by vortex and heated at 37° C. for 20 minutes. The obtained standard solution was stored at 25° C. in the dark under controlled temperature.
A portion of the stock solutions was collected in an amber vial and diluted to 100 μM by phosphate buffer at pH 7.8 (dilution factor, 1:100).
Reversed-phase UHPLC was performed operating at a flow rate of 0.3 ml/min with a Luna Omega Polar C18 column ([…] 1.6 μm, 2.1×100 mm). Solvent A was 0.5% Formic Acid in water and solvent B was 0.5% Formic Acid in acetonitrile. First, samples were loaded onto the column and washed isocratically at 10% B for 3 min. Then, a gradient of 10-95% B was run over 22 min, held at 95% for 2 min, and then decreased to 10% over 1 min and held, for the pressure stabilization, for 5 min. UV Absorption was monitored by DAD (220-400 nm). ESI-MS ion trap was used for the monitoring of TIC.

[4] = octanol/ISA water, read-out: logP
[5] = pH 7.4, pH 7.4, octanol/ISA water, read-out: Log D (7.4)

IL-17RA/IL17RC dimerization induced by IL-17A, sequence (Q16552 24-155): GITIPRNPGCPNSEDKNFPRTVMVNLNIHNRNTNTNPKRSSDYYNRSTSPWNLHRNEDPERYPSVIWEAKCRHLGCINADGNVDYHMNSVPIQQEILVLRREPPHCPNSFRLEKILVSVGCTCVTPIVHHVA

Compound	IP (isoelectric point) [1]	logP ([1]; logP)	logD ([1]; pH 7.4, Log D (7.4))	IC50 [2]	solubility [3]	logP [1, 4]	logD [1, 5]
CC[C@H](C)[C@H](NC(C)=O)C(=O)N[C@@H](Cc1c[nH]cn1)C(=O)N[C@H](C(=O)N[C@H](C(=O)N[C@H](C(=O)N1CCC[C@H]1C(=O)N[C@@H](C)C(=O)N[C@@H](CC(=O)O)C(=O)N[C@@H](CC(C)C)C(=O)N[C@@H](Cc1c[nH]c2ccccc12)C(=O)N[C@@H](CC(=O)O)C(=O)N[C@@H](Cc1c[nH]c2ccccc12)C(=O)N[C@H](C(=O)N[C@@H](CC(N)=O)C(=O)N[C@@H](CCCNC(=N)N)C(N)=O)[C@@H](C)CC)[C@@H](C)CC)[C@@H](C)O)C(C)C [SEQ ID NO: 10] (Ac-IHVTIPADLWDWINR-NH2)	5.14	0.09	-3.66	< 400 nM	> 10 mM	–	–
CC[C@H](C)[C@H](NC(C)=O)C(=O)N[C@@H](Cc1c[nH]cn1)C(=O)N[C@H](C(=O)N[C@H](C(=O)N[C@H](C(=O)N1CCC[C@H]1C(=O)N[C@@H](C)C(=O)N[C@@H](CC(=O)O)C(=O)N[C@@H](CC(C)C)C(=O)N[C@@H](Cc1c[nH]c2ccccc12)C(=O)N[C@@H](CC(=O)O)C(=O)N[C@@H](Cc1c[nH]c2ccccc12)C(=O)N[C@H](C(=O)N[C@@H](CCC(=O)O)C(=O)N[C@@H](CCC(=O)O)C(N)=O)C(C)C)[C@@H](C)CC)[C@@H](C)O)C(C)C [SEQ ID NO: 15] (Ac-IHVTIPADLWDWVEE-NH2)	3.51	1.66	1.88	< 400 nM	≥ 0.05 mM	–	–
CC[C@H](C)[C@H](NC(=O)[C@H](Cc1c[nH]c2ccccc12)NC(=O)[C@H](CCC(=O)O)NC(=O)[C@H](Cc1ccc(O)cc1)NC(=O)[C@H](CC(C)C)NC(=O)[C@H](CC(=O)O)NC(=O)[C@H](C)NC(=O)[C@@H]1CCCN1C(=O)[C@@H](NC(=O)[C@@H](NC(=O)[C@@H](NC(=O)[C@H](CCSC)NC(=O)[C@@H](NC(C)=O)C(C)C)C(C)C)[C@@H](C)O)[C@@H](C)CC)C(=O)N[C@@H](CC(N)=O)C(=O)N[C@@H](CCCCN)C(N)=O [SEQ ID NO: 16] (Ac-VMVTIPADLYEWINK-NH2)	5.19	–	–	< 400 nM	> 10 mM	0.13	0.24
CC[C@H](C)[C@H](NC(=O)[C@H](Cc1c[nH]c2ccccc12)NC(=O)[C@H](CCC(=O)O)NC(=O)[C@H](Cc1ccc(O)cc1)NC(=O)[C@H](CC(C)C)NC(=O)[C@H](CC(=O)O)NC(=O)[C@H](C)NC(=O)[C@@H]1CCCN1C(=O)[C@@H](NC(=O)[C@@H](NC(=O)[C@@H](NC(=O)[C@H](CCSC)NC(=O)[C@@H](NC(C)=O)C(C)C)C(C)C)[C@@H](C)O)[C@@H](C)CC)C(=O)N[C@@H](CCCNC(=N)N)C(=O)N[C@@H](CCCNC(=N)N)C(N)=O [SEQ ID NO: 17] (Ac-VMVTIPADLYEWIRR-NH2)	8.05	–	–	< 400 nM	> 10 mM	-0.44	-3.68
CC[C@H](C)[C@H](NC(=O)[C@H](Cc1c[nH]c2ccccc12)NC(=O)[C@H](CCC(=O)O)NC(=O)[C@H](Cc1ccc(O)cc1)NC(=O)[C@H](CC(C)C)NC(=O)[C@H](CC(=O)O)NC(=O)[C@H](C)NC(=O)[C@@H]1CCCN1C(=O)[C@@H](NC(=O)[C@@H](NC(=O)[C@@H](NC(=O)[C@H](CCSC)NC(=O)[C@@H](NC(C)=O)C(C)C)C(C)C)[C@@H](C)O)[C@@H](C)CC)C(=O)N[C@@H](CCC(=O)O)C(=O)N[C@@H](CCC(=O)O)C(=O)N[C@@H](CCCNC(=N)N)C(=O)N[C@@H](CCCNC(=N)N)C(=O)N[C@@H](CCCNC(=N)N)C(=O)N[C@@H](CCCNC(=N)N)C(=O)N[C@@H](CCCNC(=N)N)C(=O)N[C@@H](CCCNC(=N)N)C(N)=O [SEQ ID NO: 19] (Ac-VMVTIPADLYEWIEERRRRRR-NH2)	12.49	–	–	< 1000 nM	≥ 0.1 mM	–	-3.94
CC[C@H](C)[C@H](NC(=O)[C@H](Cc1c[nH]c2ccccc12)NC(=O)[C@H](CCC(=O)O)NC(=O)[C@H](Cc1ccc(O)cc1)NC(=O)[C@H](CC(C)C)NC(=O)[C@H](CC(=O)O)NC(=O)[C@H](C)NC(=O)[C@@H]1CCCN1C(=O)[C@@H](NC(=O)[C@@H](NC(=O)[C@@H](NC(=O)[C@H](CCSC)NC(=O)[C@@H](NC(C)=O)C(C)C)C(C)C)[C@@H](C)O)[C@@H](C)CC)C(=O)N[C@@H](CCC(=O)O)C(=O)N[C@@H](CCC(=O)O)C(=O)N[C@@H](CCCNC(=N)N)C(=O)N[C@@H](CCCNC(=N)N)C(=O)N[C@@H](CCCNC(=N)N)C(N)=O [SEQ ID NO: 20] (Ac-VMVTIPADLYEWIEERRR-NH2)	11.29	–	–	< 1000 nM	≥ 0.1 mM	–	-3.69
CC[C@H](C)[C@H](NC(=O)[C@H](Cc1c[nH]c2ccccc12)NC(=O)[C@H](CCC(=O)O)NC(=O)[C@H](Cc1ccc(O)cc1)NC(=O)[C@H](CC(C)C)NC(=O)[C@H](CC(=O)O)NC(=O)[C@H](C)NC(=O)[C@@H]1CCCN1C(=O)[C@@H](NC(=O)[C@@H](NC(=O)[C@@H](NC(=O)[C@H](CCSC)NC(=O)[C@@H](NC(C)=O)C(C)C)C(C)C)[C@@H](C)O)[C@@H](C)CC)C(=O)N[C@@H](CCC(=O)O)C(=O)N[C@@H](CCC(=O)O)C(=O)N[C@@H](C)C(=O)N[C@@H](CCCNC(=N)N)C(=O)N[C@@H](CCCCN)C(=O)N[C@@H](CCCCN)C(=O)N[C@@H](C)C(=O)N[C@@H](C)C(=O)N[C@@H](CCCCN)C(=O)N[C@@H](C)C(N)=O [SEQ ID NO: 21] (Ac-VMVTIPADLYEWIEEARKKAAKA-NH2)	10.6	–	–	< 1000 nM	> 10 mM	-4.99	-0.55

The next lines start with the values.

IP (isoelectric point) [1]	logP ([1]; logP)	logD ([1]; pH 7.4, Log D (7.4))	IC50 [2]	solubility [3]	logP [1, 4]	logD [1, 5]	Compound
5.14	-5.12	-4.06	< 200 nM	> 10 mM	–	–	CC[C@H](C)[C@H](NC(C)=O)C(=O)N[C@@H](Cc1c[nH]cn1)C(=O)N[C@H](C(=O)N[C@H](C(=O)N[C@H](C(=O)N1CCC[C@H]1C(=O)N[C@@H](C)C(=O)N[C@@H](CC(=O)O)C(=O)N[C@@H](CC(C)C)C(=O)N[C@@H](Cc1c[nH]c2ccccc12)C(=O)N[C@@H](CC(=O)O)C(=O)N[C@@H](Cc1c[nH]c2ccccc12)C(=O)N[C@H](C(=O)N[C@@H](CC(N)=O)C(=O)N[C@@H](CCCCN)C(N)=O)C(C)C)[C@@H](C)CC)[C@@H](C)O)C(C)C [SEQ ID NO: 8] (Ac-IHVTIPADLWDWVNK-NH2)
8.28	-0.53	-1.08	< 300 nM	> 10 mM	–	–	CC[C@H](C)[C@H](NC(C)=O)C(=O)N[C@@H](Cc1c[nH]cn1)C(=O)N[C@H](C(=O)N[C@H](C(=O)N[C@H](C(=O)N1CCC[C@H]1C(=O)N[C@@H](C)C(=O)N[C@@H](CC(=O)O)C(=O)N[C@@H](CC(C)C)C(=O)N[C@@H](Cc1c[nH]c2ccccc12)C(=O)N[C@@H](CC(=O)O)C(=O)N[C@@H](Cc1c[nH]c2ccccc12)C(=O)N[C@H](C(=O)N[C@@H](CCCNC(=N)N)C(=O)N[C@@H](CCCCN)C(N)=O)[C@@H](C)CC)[C@@H](C)CC)[C@@H](C)O)C(C)C [SEQ ID NO: 9] (Ac-IHVTIPADLWDWIRK-NH2)
3.66	1.31	-5.24	< 200 nM	≥ 0.01 mM	–	–	CC[C@H](C)[C@H](NC(C)=O)C(=O)N[C@@H](Cc1c[nH]cn1)C(=O)N[C@H](C(=O)N[C@H](C(=O)N[C@H](C(=O)N1CCC[C@H]1C(=O)N[C@@H](C)C(=O)N[C@@H](CC(=O)O)C(=O)N[C@@H](CC(C)C)C(=O)N[C@@H](Cc1c[nH]c2ccccc12)C(=O)N[C@@H](CC(=O)O)C(=O)N[C@@H](Cc1c[nH]c2ccccc12)C(=O)N[C@H](C(=O)N[C@@H](CC(N)=O)C(=O)N[C@@H](CCC(=O)O)C(N)=O)[C@@H](C)CC)[C@@H](C)CC)[C@@H](C)O)C(C)C [SEQ ID NO: 12, IHVTIPADLWDWINE] (Ac-IHVTIPADLWDWINE-NH2)
